Publication PMC9585585, “Discovery of Small-Molecule Allosteric Inhibitors of PfATC as Antimalarials” (Journal of the American Chemical Society, 2022)
Where “and” joins values, the source holds several entries; their conditions need not be identical. Equal values may be shown once. Read-outs that look alike come from different tables or passages of the source.

How the values were obtained:
P. falciparum 3D7 = experiment: Growth-inhibition assay of P. falciparum (SYBR Green I); type: cell-based, Plasmodium falciparum; conditions: P. falciparum 3D7, 96 h, read-out: EC50 against blood stage 3D7 cultures
Protocol: 488Cell culture and growth-inhibition assay of P. falciparum. P. falciparum 3D7 parasites
489(Wellcome Trust Dundee) were maintained in continuous culture at 37 °C and an atmosphere
490consisting of 90% N 2, 5% O2, and 5% CO2 as described previously 30 with modifications.31
491Parasites were maintained in 25 mM 4-(2-hydroxyethyl)-1-piperazineethanesulfonic acid (HEPES)
492and 11.9 mM sodium bicarbonate buffered RPMI 1640 medium supplemented with D-glucose
493(11 mM), hypoxanthine, AlbuMAX-I (0.5% w/v), and 10 µg/mL gentamicin. 0+ blood was
494provided by “Hospital Novo Atibaia” (Brazil) in agreement with the ethics committee at ICB-USP.
495Compounds were tested for their inhibitory effect against P. falciparum 3D7 conducting SYBR
496Green I (Invitrogen) drug assays as reported. 32, 33 Briefly, two-fold serial dilutions of compounds
497were prepared in 96-well plates starting from 100 and 20 µM in technical triplicate and incubated
498for 96 h under normal growth conditions using an initial parasitemia of 0.5% and a hematocrit of
4992% in a volume of 100 µL per well. Parasite proliferation was measured by quantifying DNA via
500SYBR Green I emitted fluorescence in the wells after addition of 100 µL lysis buffer supplemented
501with SYBR Green I (0.02% v/v) and incubation for 1 h at room temperature in the dark.
502Fluorescence was quantified using a CLARIOstar plate reader (BMG Labtech, Germany) at
503excitation and emission wavelength bands of 485 (± 9) and 530 (± 12) nm, respectively. Focal and
504gain adjustment was performed using the negative controls (highest expected fluorescence signal).
505Data was acquired via the CLARIOstar (V5.20) and MARS software, manually normalized, and
506plotted using the nonlinear regression curve fit implemented in GraphPad Prism as described below
507in more detail. Non-treated parasites, highest solvent concentration on parasites, and highest drug
508concentration in medium were used as controls for maximal growth, solvent control, and native
509drug fluorescence, respectively.
511Nonlinear regression fit and analysis of dose-response drug assays. Nonlinear regression as
512implemented in GraphPad Prism 8.4.3 (log(inhibitor) vs. response – Variable slope (four
513parameters)) was used to fit the measured data to interpolate the IC 50 value from the curve. No
514specific model was applied. Data was pre-processed by min-max-scaling according to the
517where y is the fluorescence signal in each well, y minimum the background fluorescence, and ymaximum
518the highest measured fluorescence signal in the untreated wells. Drug concentrations (in µM) were
519transformed to the log(10)of the values. Means of each independent experiment were plotted as
520individual values, and the SD of the mean from the means shown as error bars. The test for
521homoscedasticity was performed to confirm if no weighting of values was appropriate.

HsATC = molecular target: T1, HsATC (Homo sapiens, UniProt P27708); experiment: HsATC activity assay; type: biochemical; conditions: in vitro activity assay
T1 construct: ATCase domain of CAD; made in house; host or cells: E. coli BL21 star
T1 sequence (P27708 1918-2225 limits assumed): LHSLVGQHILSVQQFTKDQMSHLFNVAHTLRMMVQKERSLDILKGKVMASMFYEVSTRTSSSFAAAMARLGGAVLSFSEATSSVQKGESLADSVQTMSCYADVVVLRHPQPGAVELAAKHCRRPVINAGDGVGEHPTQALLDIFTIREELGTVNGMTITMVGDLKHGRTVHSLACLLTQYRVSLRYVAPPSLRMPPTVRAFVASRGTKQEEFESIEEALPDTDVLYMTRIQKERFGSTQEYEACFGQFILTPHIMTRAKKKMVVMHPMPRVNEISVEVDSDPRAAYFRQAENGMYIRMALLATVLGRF
Protocol: 417100μL of stop mix (two volumes of Antipyrine (26.5 mM 2,3-Dimethyl-1-phenyl-3-pyrazolin-5-
418one in 50% (v/v) sulfuric acid) and one volume of 2,3-Butanedione monoxime (80 mM 2,3-
419Butanedione monoxime in 5% (v/v) acetic acid). After plates were sealed with transparent sealing
420tape to prevent evaporation and incubated overnight in the dark place at room temperature. After
421incubation, the plates were heated at 95 °C for 15 min in dark place, and kept for 30 min before
422measuring at 466 nm suing a Synergy H1 Hybrid Reader (BioTek). Analyses were performed using
423Microsoft Excel and Graph Pad Prism.
424HsATC activity assay. The enzymatic assay was performed as described herein above for
425enzymatic assay of PfATC with minor modifications. Briefly, the reaction was carried out at room
426temperature in a total volume of 150 μl of 10 mM L-aspartate and 5 mM carbamoyl phosphate
427saturated substrate solution in 50 mM Tris-Acetate buffer pH 8.3. hsATC was pre-incubated with
428inhibitor and L-Asp for 10 min at room temperature on a shaker. The reaction was initiated by
429adding CP and stopped after 5 min with […] color mix. Then the plate was covered by sealing
430tape and kept in dark place at room temperature and then heated to 95 °C for 15min in dark and kept
431the plate in the dark for another 30 min before measuring the absorbance at 466 nm suing a Synergy
432H1 Hybrid Reader (BioTek). […]

[1] = 10 mM L-aspartate, 5 mM carbamoyl phosphate, read-out: HsATC IC50

| SMILES | EC50 (P. falciparum 3D7) | IC50 (HsATC; [1]) | EC50 (P. falciparum 3D7; Plasmodium falciparum, 3D7, 96 h) | IC50 (HsATC; n = 3, read-out: IC50 against HsATC) |
| --- | --- | --- | --- | --- |
| CC(C)(C)OC(=O)Nc1sc(-c2ccccc2)cc1C(=O)NCCO [BDA-14] | 42500 nM | 137 nM | – | – |
| COc1cccc(CCNC(=O)c2cc(-c3ccccc3)sc2NC(=O)OC(C)(C)C)c1 [BDA-24] | 2000 nM and 2030 nM | 316 nM | – | – |
| CC(C)(C)OC(=O)Nc1sc(-c2ccccc2)cc1C(=O)NCCc1ccccc1 [BDA-04] | 2430 nM | 2840 nM | 2400 nM | 2800 nM and 2840 nM |
| CC(C)(C)OC(=O)Nc1sc(-c2ccccc2)cc1C(=O)NCCc1ccc(O)cc1 [BDA-11] | 3400 nM and 3370 nM | 116 nM | – | – |
